{
  "source": "patent US8071540B2",
  "about": "“Virus derived antimicrobial peptides” (priority 2007, dated 2011)",
  "system": "Burkholderia cepacia",
  "assay_type": "cell-based",
  "settings": "25 μM peptide, organisms surviving, FIG. 8",
  "note": "Where no end group is shown, it is not given here.",
  "data": [
    {"sequence": "RWIRVVQRWCRAIRHIWRRIRQGLRRWLRVV [WLSA-5, RWIRVVQRWCRAIRHIWRRIRQGLRRWLRVV]", "values": [
      {"measurement": "killing of B. cepacia genomovars compared with LL37", "value": "equal to or better than LL-37 at killing all bacterial strains"}
    ]}
  ]
}
